From PMC6332194, “Synthesis of C3/C1-Substituted Tetrahydroisoquinolines” (Molecules, 2015)

How the values were obtained:
Test in all cases: fluorogenic peptide-AMC hydrolysis assay
Assay type in all cases: biochemical
[1] = target: T1, human 20S proteasome, β2-subunits (trypsin-like activity) (Homo sapiens, UniProt Q99436)
T1 construct: gene PSMB7; commercial 20S core particle (Biomol GmbH); with Proteasome subunit beta type-3; Proteasome subunit beta type-5; Proteasome subunit beta type-6; Proteasome subunit beta type-1; Proteasome subunit beta type-2; Proteasome subunit beta type-4; Proteasome subunit alpha type-6; Proteasome subunit alpha type-2; Proteasome subunit alpha type-4; Proteasome subunit alpha type-7; Proteasome subunit alpha type-5; Proteasome subunit alpha type-1; Proteasome subunit alpha type-3
T1 sequence (Q99436 44-277): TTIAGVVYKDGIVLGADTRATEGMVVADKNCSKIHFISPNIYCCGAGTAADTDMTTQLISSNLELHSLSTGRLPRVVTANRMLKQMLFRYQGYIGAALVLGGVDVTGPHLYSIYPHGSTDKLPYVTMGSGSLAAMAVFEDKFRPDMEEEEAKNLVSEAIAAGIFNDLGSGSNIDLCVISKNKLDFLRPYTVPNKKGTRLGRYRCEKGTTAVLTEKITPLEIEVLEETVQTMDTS

[2] = target: T2, recombinant Leishmania mexicana cysteine protease CPB2.8 (Leishmania mexicana, UniProt P36400)
T2 construct: gene LMCPB; recombinant; often used without C-terminal extension

[3] = target: T3, human 20S proteasome, β5-subunits (chymotrypsin-like activity) (Homo sapiens, UniProt P28074)
T3 construct: gene PSMB5; commercial 20S core particle (Biomol GmbH); with Proteasome subunit beta type-1; Proteasome subunit beta type-6; Proteasome subunit beta type-7; Proteasome subunit beta type-3; Proteasome subunit beta type-2; Proteasome subunit beta type-4; Proteasome subunit alpha type-6; Proteasome subunit alpha type-2; Proteasome subunit alpha type-4; Proteasome subunit alpha type-7; Proteasome subunit alpha type-5; Proteasome subunit alpha type-1; Proteasome subunit alpha type-3
T3 sequence (P28074 60-263): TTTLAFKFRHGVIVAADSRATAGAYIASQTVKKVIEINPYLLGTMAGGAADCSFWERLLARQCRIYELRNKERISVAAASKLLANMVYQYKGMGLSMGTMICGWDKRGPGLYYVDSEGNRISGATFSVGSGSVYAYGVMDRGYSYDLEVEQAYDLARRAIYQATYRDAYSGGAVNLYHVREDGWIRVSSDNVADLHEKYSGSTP

T2 sequence (P36400 126-340): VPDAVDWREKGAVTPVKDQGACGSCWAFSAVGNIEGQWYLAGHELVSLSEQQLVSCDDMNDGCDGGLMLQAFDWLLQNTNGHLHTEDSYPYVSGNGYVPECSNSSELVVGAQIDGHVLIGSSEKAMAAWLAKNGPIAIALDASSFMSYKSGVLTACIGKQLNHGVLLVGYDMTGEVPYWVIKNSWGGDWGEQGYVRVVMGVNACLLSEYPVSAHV

Which inhibition at 20 µM [1] does the source give for COc1cc2c(cc1O)[C@@H](C)N(C)CC2 [compound 2, N-methylisosalsoline] here?
The inhibition at 20 µM was about 20%.

What about the inhibition at 20 µM [2] of the same compound?
The inhibition at 20 µM was about 14%.

And the inhibition at 20 µM [3]?
The inhibition at 20 µM was about 40%.
